Target: LC3B (Homo sapiens, UniProt Q9GZQ8)
Assay: Fluorescence Polarization (FP) Assay: displacement of FITC-labeled peptide from GST-LC3B
Format: binding
Details: Fluorescence Polarization assay; GST-LC3B 180 nM, FITC-labeled peptide 18 nM, 25° C.; read-out: IC50
Experimental: The compounds of the present invention for regulating the autophagy-related protein LC3B were tested by Fluorescence Polarization (FP) Assay.
Fluorescence Polarization (FP) Assay Test

Q: Which IC50 does the source give for `O=C1CC(COc2ccccc2)CC(=O)C1=CNCCN1CCN(CCO)CC1` (stereo not drawn) [Compound 31, 2-(((2-(4-(2-hydroxyethyl)piperazin-1-yl)ethyl)amino)methylene)-5-(phenoxymethyl) cyclohexane-1,3-dione] here?
A: Its IC50 is 3 to 15 µM.

Q: For `O=C1CC(c2c[nH]c3cccc(F)c23)CC(=O)C1=CNCCN1CCN(CCO)CC1` (stereo not drawn) [Compound 24, 5-(4-fluoro-1H-indol-3-yl)-2-(((2-(4-(2-hydroxyethyl)piperazin-1-yl)ethyl)amino)methylene) cyclohexane-1,3-dione], which IC50 is on record?
A: The IC50 was less than 3 µM.

Q: For `CN(C)CCNC=C1C(=O)CC(c2ccc(F)cc2F)CC1=O` (stereo not drawn) [Compound 301, 5-(2,4-difluorophenyl)-2-(((2-(dimethylamino)ethyl)amino)methylene) cyclohexane-1,3-dione], which IC50 is on record?
A: Its IC50 is less than 3 µM.

Q: `CCN1CCN(CCNC=C2C(=O)CC(c3ccc(C)cc3)CC2=O)CC1` (stereo not drawn) [Compound 238, 2-(((2-(4-ethylpiperazin-1-yl)ethyl)amino)methylene)-5-(p-tolyl) cyclohexane-1,3-dione] was tested. Which IC50 did it give?
A: Its IC50 is less than 3 µM.

Q: With `CN(C)CCNC=C1C(=O)CC(c2c(Cl)ccc(F)c2F)CC1=O` (stereo not drawn) [Compound 398, 5-(6-chloro-2,3-difluorophenyl)-2-(((2-(dimethylamino)ethyl)amino)methylene) cyclohexane-1,3-dione] as the compound, how does the IC50 read?
A: Its IC50 is less than 3 µM.

Q: With `O=C1CC(c2cccc(Br)c2)CC(=O)C1=CO` (stereo not drawn) [Compound 439, 2-(hydroxymethylene)-5-(3-bromophenyl)cyclo-hexane-1,3-dione] as the compound, how does the IC50 read?
A: Its IC50 is 3 to 15 µM.

Q: Which IC50 does the source give for `CN(C)C=C1C(=O)CC(Cc2ccccc2)CC1=O` (stereo not drawn) [Compound 272, 5-benzyl-2-((dimethylamino)methylene) cyclohexane-1,3-dione] here?
A: Its IC50 is 3 to 15 µM.

Q: For `Cc1ccc(C2CC(=O)C(=CNCCN3CCN(C(=O)N(C)C)CC3)C(=O)C2)cc1` (stereo not drawn) [Compound 240, 4-(2-(((2,6-dioxo-4-(p-tolyl)cyclohexylidene)methyl)amino)ethyl)-N,N-dimethyl-piperazine-1-carboxamide], which IC50 is on record?
A: Its IC50 is less than 3 µM.

Q: How did the IC50 turn out when `O=C1Nc2cc(C(F)(F)F)ccc2C(=O)/C1=C\NCCN1CCN(CCO)CC1` [Compound 354, 3-(((2-(4-(2-hydroxyethyl)piperazin-1-yl)ethyl)amino)methylene)-7-(trifluoromethyl) quinoline-2,4(1H,3H)-dione] was run?
A: Its IC50 is less than 3 µM.

Q: `O=C1NC(=O)/C(=C\NCCN2CCN(CCO)CC2)S1` [Compound 200, 5-(((2-(4-(2-hydroxyethyl)piperazin-1-yl)ethyl)amino)methylene)thiazolidine-2,4-dione] was tested. Which IC50 did it give?
A: Its IC50 is 100 to 1000 µM.

Q: For `N#CC1C(=O)C(=CNCCN2CCN(CCO)CC2)C(=O)CC1c1ccccc1` (stereo not drawn) [Compound 327, 2-(((2-(4-(2-hydroxyethyl)piperazin-1-yl)ethyl)amino)methylene)-4-cyano-5-phenylcyclohexane-1,3-dione], which IC50 is on record?
A: The IC50 was less than 3 µM.

Q: With `COc1cc(Br)c(C2CC(=O)C(=CNCCN(C)C)C(=O)C2)cc1OC` (stereo not drawn) [Compound 379, 5-(2-bromo-4,5-dimethoxyphenyl)-2-(((2-(dimethylamino)ethyl)amino)methylene) cyclohexane-1,3-dione] as the compound, how does the IC50 read?
A: The IC50 was less than 3 µM.

Q: Which IC50 does the source give for `Cc1ccc(C2CC(=O)C(=CO)C(=O)C2)cc1` (stereo not drawn) [Compound 415, 2-(hydroxymethylene)-5-(4-methylphenyl)cyclo-hexane-1,3-dione] here?
A: The IC50 was 3 to 15 µM.

Q: How did the IC50 turn out when `CN(C)CCNC=C1C(=O)CC(c2c(F)cccc2Br)CC1=O` (stereo not drawn) [Compound 306, 5-(2-bromo-6-fluorophenyl)-2-(((2-(dimethylamino)ethyl)amino)methylene) cyclohexane-1,3-dione] was run?
A: Its IC50 is less than 3 µM.

Q: With `O=C1CC(c2ccccc2-c2ccccc2)CC(=O)C1=CNCCN1CCN(CCO)CC1` (stereo not drawn) [Compound 187, 5-([1,1′-biphenyl]-2-yl)-2-(((2-(4-(2-hydroxyethyl)piperazin-1-yl)ethyl)amino)methylene) cyclohexane-1,3-dione] as the compound, how does the IC50 read?
A: The IC50 was less than 3 µM.

Q: With `CC(=O)Nc1ccc(C2CC(=O)C(=CN(C)C)C(=O)C2)cc1` (stereo not drawn) [Compound 256, N-(4-(4-((dimethylamino)methylene)-3,5-dioxocyclohexyl)phenyl) acetamide] as the compound, how does the IC50 read?
A: The IC50 was less than 3 µM.

Q: Which IC50 does the source give for `O=C1CC(c2ccc(S(=O)(=O)N3CCOCC3)cc2)CC(=O)C1=CNCCN1CCN(CCO)CC1` (stereo not drawn) [Compound 92] here?
A: The IC50 was 15 to 100 µM.

Q: With `O=C1Nc2ccc(-c3ccccc3)cc2C(=O)/C1=C/NCCN1CCN(CCO)CC1` [Compound 328, 3-(((2-(4-(2-hydroxyethyl)piperazin-1-yl)ethyl)amino)methylene)-6-phenylquinoline-2,4(1H,3H)-dione] as the compound, how does the IC50 read?
A: The IC50 was 3 to 15 µM.

Q: `CN(C)C=C1C(=O)CC(c2ccc(Cl)nc2)CC1=O` (stereo not drawn) [Compound 266, 5-(6-chloropyridin-3-yl)-2-((dimethylamino)methylene) cyclohexane-1,3-dione] was tested. Which IC50 did it give?
A: Its IC50 is 3 to 15 µM.

Q: Which IC50 does the source give for `O=C1CC(c2cccc3[nH]cc(-c4ccccc4)c23)CC(=O)C1=CNCCN1CCN(CCO)CC1` (stereo not drawn) [Compound 353, 2-(((2-(4-(2-hydroxyethyl)piperazin-1-yl)ethyl)amino)methylene)-5-(3-phenyl-1H-indol-4-yl)cyclohexane-1,3-dione] here?
A: Its IC50 is less than 3 µM.

Q: `O=C1CC(c2cccs2)CC(=O)C1=CO` (stereo not drawn) [Compound 427, 2-(hydroxymethylene)-5-(2-thiophen)cyclohexane-1,3-dione] was tested. Which IC50 did it give?
A: Its IC50 is 3 to 15 µM.

Q: For `O=C1CC(c2c[nH]c3cccc(Br)c23)CC(=O)C1=CNCCN1CCN(CCO)CC1` (stereo not drawn) [Compound 375, 5-(4-bromo-1H-indol-3-yl)-2-(((2-(4-(2-hydroxyethyl)piperazin-1-yl)ethyl)amino)methylene) cyclohexane-1,3-dione], which IC50 is on record?
A: Its IC50 is less than 3 µM.

Q: `O=C1CC(c2ccccc2)CC(=O)C1=CN[C@@H](Cc1ccccc1)C(=O)O` (stereo partly drawn) [Compound 123, ((2,6-dioxo-4-phenylcyclo-hexylidene)methyl) phenylalanine] was tested. Which IC50 did it give?
A: Its IC50 is 100 to 1000 µM.

Q: Which IC50 does the source give for `O=C1CC(=Cc2ccccc2)C(=O)C1=CNCCN1CCN(CCO)CC1` [Compound 407, 4-benzylidene-2-(((2-(4-(2-ethoxyl)piperazin-1-yl)ethyl)amino)methylene) cyclopentane-1,3-dione] here?
A: The IC50 was 15 to 100 µM.

Q: With `CC(C)CC(=O)N1CCN(CCNC=C2C(=O)CC(c3ccccc3)CC2=O)CC1` (stereo not drawn) [Compound 213, 2-(((2-(4-(3-methylbutanoyl)piperazin-1-yl)ethyl)amino)methylene)-5-phenylcyclohexane-1,3-dione] as the compound, how does the IC50 read?
A: Its IC50 is less than 3 µM.

Q: How did the IC50 turn out when `CCOC(=O)C(CS)NC=C1C(=O)CC(c2ccccc2)CC1=O` (stereo not drawn) [Compound 169, ethyl ((2,6-dioxo-4-phenylcyclo-hexylidene)methyl) cysteinate] was run?
A: Its IC50 is 3 to 15 µM.

Q: `CN(C)C=C1C(=O)CC(c2ccc(N(C)C)cc2)CC1=O` (stereo not drawn) [Compound 242, 2-((dimethylamino)methylene)-5-(4-(dimethylamino)phenyl) cyclohexane-1,3-dione] was tested. Which IC50 did it give?
A: The IC50 was 3 to 15 µM.

Q: How did the IC50 turn out when `CN(C)C=C1C(=O)CC(c2c[nH]c3ccccc23)CC1=O` (stereo not drawn) [Compound 283, 2-((dimethylamino)methylene)-5-(1H-indol-3-yl)cyclohexane-1,3-dione] was run?
A: The IC50 was less than 3 µM.

Q: How did the IC50 turn out when `O=C1CC(c2csc3ccccc23)CC(=O)C1=CNCCN1CCN(CCO)CC1` (stereo not drawn) [Compound 66, 5-(benzo[b]thiophen-3-yl)-2-(((2-(4-(2-hydroxyethyl)piperazin-1-yl)ethyl)amino)methylene) cyclohexane-1,3-dione] was run?
A: The IC50 was less than 3 µM.

Q: For `Cc1ccc2[nH]cc(C3CC(=O)C(=CN(C)C)C(=O)C3)c2c1` (stereo not drawn) [Compound 299, 2-((dimethylamino)methylene)-5-(5-methyl-1H-indol-3-yl)cyclohexane-1,3-dione], which IC50 is on record?
A: The IC50 was 3 to 15 µM.
